# Reference: patent US20250214977A1, “STAT6 INHIBITORS AND USES THEREOF” (Kymera Therapeutics, Inc., priority 2024, published 2025)
# System: Phosphorylation of STAT6 in human PBMC (CD19+ B cells)
# Assay: Phosphorylated STAT6 (pSTAT6) flow cytometry assay in human PBMC, IL-4 stimulated
# Format: cell-based
# Details: compound 1 hour, 1 ng/ml IL-4 for 15 minutes, read-out: STAT6 IL4 pSTAT6 assay in PBMC: Average IC50
# Procedure: Example 2. Phosphorylated STAT6 (pSTAT6) Flow Cytometry Assay in Human PBMC
# Phosphorylation of STAT6 in human PBMC was quantitatively measured using flow cytometry technology. Human PBMC were seeded in 96-well plates with a density of 0.3 to 0.5 million cells per well in 100 μl fresh media. Compounds were then added to the assay plates with a final top concentration of up to 30 μM in a 1:3 dilution series with total of 9 doses. The assay plates were incubated for 1 hour at 37° C. under 5% CO2. The cells were then stimulated with 1 ng/ml of IL-4 (R&D Systems, Cat #6507-IL) for 15 minutes, followed by fixation for 30 minutes at 4° C. Cells were spun down at 350 g for 5 minutes. The supernatant was removed and cells were washed once with FACS buffer. Cells were permeabilized with 90% MeOH/H2O for 30 minutes at 4° C., followed by one wash with FACS buffer. Non-specific binding were blocked with human Fc for 1 hour at 4 C, followed by one wash with FACS buffer. AF488 conjugated pSTAT6 antibody (BD Biosciences, Cat #612600, 1:100 dilution) and PE conjugated CD19 antibody (BD Biosciences, Cat #341103, 1:50 dilution) diluted in 100 μl FACS buffer was added to each well with overnight incubation at 4° C. Cells were then washed once with FACS buffer and resuspended in 200 μl of FACS buffer for flow cytometry to quantify pSTAT6 in CD19+ B cells. The data was analyzed by GraphPad Prism and the dose dependent pSTAT6 inhibition was fit using the four-parameter inhibitor vs. response nonlinear regression.
row,SMILES,IC50 [µM]
1,"CN(C)C(=O)c1cc2cc([C@@H]3CC[C@H](CO)N(C(=O)CCn4ccnn4)C3)ccc2o1 (single isomer, unassigned) [Example I-156]",> 100
2,"CN(C)C(=O)c1cc2cc([C@H]3CC[C@H](CO)N(C(=O)CCn4ccnn4)C3)ccc2o1 (single isomer, unassigned) [Example I-157]",> 100
3,"CN(C)C(=O)c1cc2cc(C3=CCCN(C(=O)[C@@H](N)Cn4ccnn4)C3)ccc2o1 (single isomer, unassigned) [Example I-173]",> 100
4,"CN(C)C(=O)c1cc2cc(C3=CCCN(C(=O)[C@H](N)Cn4ccnn4)C3)ccc2o1 (single isomer, unassigned) [Example I-174]",> 100
5,"CC(=O)N1CCc2ccccc2[C@H]1C(=O)N1CCC=C(c2ccc3oc(C(=O)N(C)C)cc3c2)C1 (single isomer, unassigned) [Example I-176]",> 100
6,"CC(=O)N1CCc2ccccc2[C@@H]1C(=O)N1CCC=C(c2ccc3oc(C(=O)N(C)C)cc3c2)C1 (single isomer, unassigned) [Example I-177]",> 100
7,"CN(C)C(=O)c1cc2cc([C@@H]3CN(C(=O)CCn4ccnn4)CC[C@H]3O)ccc2o1 (single isomer, unassigned) [Example I-209]",> 100
8,"CN(C)C(=O)c1cc2cc([C@H]3CN(C(=O)CCn4ccnn4)CC[C@@H]3O)ccc2o1 (single isomer, unassigned) [Example I-210]",> 100
9,"C[C@H](Cn1ccnn1)C(=O)N1CCC=C(c2ccc3oc(C(=O)N(C)C)cc3c2)C1 (single isomer, unassigned) [Example I-228]",10 to 100
10,"C[C@@H](Cn1ccnn1)C(=O)N1CCC=C(c2ccc3oc(C(=O)N(C)C)cc3c2)C1 (single isomer, unassigned) [Example I-229]",> 100
11,CNC1(C(=O)N2CCC=C(c3ccc4oc(C(=O)N(C)C)cc4c3)C2)CCc2ccccc2C1 (stereo not shown) [Example I-5],10 to 100
12,CN(C)C(=O)c1cc2cc(C3=CCCN(C(=O)C4Cc5c(N)cccc5CN4C=O)C3)ccc2o1 (stereo not shown) [Example I-8],0.1 to 1
13,CN(C)C(=O)c1cc2ccc(C3=CCCN(C(=O)CCc4ccn(C)n4)C3)cc2[nH]1 [Example I-10],> 100
14,CN(C)C(=O)c1cc2ccc(C3=CCCN(C(=O)[C@@H]4C[C@H]4c4ccn(C)n4)C3)cc2[nH]1 [Example I-11],10 to 100
15,Cc1cnnn1CCC(=O)N1CCC=C(c2ccc3cc(C(=O)N(C)C)[nH]c3c2)C1 [Example I-12],10 to 100
16,CN(C)C(=O)c1cc2ccc(C3=CCCN(C(=O)CCn4nncc4CO)C3)cc2[nH]1 [Example I-13],0.1 to 1
17,CN(C)C(=O)c1cc2ccc(C3=CCCN(C(=O)CCc4nn[nH]n4)C3)cc2[nH]1 [Example I-15],10 to 100
18,CN(C)C(=O)c1cc2ccc(C3=CCCN(S(=O)(=O)Cc4cccnn4)C3)cc2[nH]1 [Example I-16],> 100
19,CN(C)C(=O)c1cc2ccc(C3=CCCN(C(=O)CCc4nnco4)C3)cc2[nH]1 [Example I-18],> 100
20,CN(C)C(=O)c1cc2ccc(C3=CCCN(C(=O)CCc4ccno4)C3)cc2[nH]1 [Example I-19],> 100
21,CN(C)C(=O)c1cc2ccc(C3=CCCN(C(=O)CCc4ccon4)C3)cc2[nH]1 [Example I-20],> 100
22,CN(C)C(=O)c1cc2ccc(C3=CCCN(C(=O)CCc4nnc[nH]4)C3)cc2[nH]1 [Example I-21],> 100

row,SMILES,IC50 [µM]
1,CN(C)C(=O)c1cc2c(-c3ccc(O)cc3)cc(C3=CCCN(C(=O)CCn4ccnn4)C3)cc2[nH]1 [Example I-22],0.1 to 1
2,C#Cc1cc(C2=CCCN(C(=O)CCn3ccnn3)C2)cc2cc(C(=O)N(C)C)oc12 [Example I-23],> 100
3,C[C@@H](O)C(=O)N1CCC=C(c2ccc3cc(C(=O)N(C)C)[nH]c3c2)C1 [Example I-24],10 to 100
4,CN(C)C(=O)c1cc2ccc(C3=CCCN(C(=O)C4CC4F)C3)cc2[nH]1 (stereo not shown) [Example I-25],> 100
5,CN(C)C(=O)c1cc2ccc(C3=CCCN(C(=O)C4CC4F)C3)cc2[nH]1 (stereo not shown) [Example I-26],> 100
6,CN(C)C(=O)c1cc2ccc(C3=CCCN(C(=O)C4(O)CC4)C3)cc2[nH]1 [Example I-27],> 100
7,CN(C)C(=O)c1cc2ccc(C3=CCCN(C(=O)C4CC(O)C4)C3)cc2[nH]1 (stereo not shown) [Example I-28],10 to 100
8,CN(C)C(=O)c1cc2ccc(C3=CCCN(C(=O)C4(C#N)CC4)C3)cc2[nH]1 [Example I-29],10 to 100
9,CN(C)C(=O)c1cc2ccc(C3=CCCN(C(=O)C4CC(=O)N4)C3)cc2[nH]1 (stereo not shown) [Example I-30],10 to 100
10,CN(C)C(=O)c1cc2ccc(C3=CCCN(C(=O)C4(O)CCCC4)C3)cc2[nH]1 [Example I-32],10 to 100
11,CN(C)C(=O)c1cc2ccc(C3=CCCN(C(=O)c4n[nH]cc4I)C3)cc2[nH]1 [Example I-33],10 to 100
12,CN(C)C(=O)c1cc2ccc(C3=CCCN(C(=O)c4c[nH]nc4I)C3)cc2[nH]1 [Example I-34],10 to 100
13,Cc1nocc1C(=O)N1CCC=C(c2ccc3cc(C(=O)N(C)C)[nH]c3c2)C1 [Example I-35],10 to 100
14,CN(C)C(=O)c1cc2ccc(C3=CCCN(C(=O)Cn4cncn4)C3)cc2[nH]1 [Example I-36],10 to 100
15,CN(C)C(=O)c1cc2ccc(C3=CCCN(C(=O)Cn4ccnn4)C3)cc2[nH]1 [Example I-37],10 to 100
16,CN(C)C(=O)c1cc2ccc(C3=CCCN(C(=O)Cc4c[nH]nn4)C3)cc2[nH]1 [Example I-38],> 100
17,CN(C)C(=O)c1cc2ccc(C3=CCCN(C(=O)C4CCC4C(=O)O)C3)cc2[nH]1 (stereo not shown) [Example I-39],10 to 100
18,CN(C)C(=O)c1cc2ccc(C3=CCCN(C(=O)C4CCCS4(=O)=O)C3)cc2[nH]1 (stereo not shown) [Example I-40],10 to 100
19,Cc1nc(CC(=O)N2CCC=C(c3ccc4cc(C(=O)N(C)C)[nH]c4c3)C2)no1 [Example I-41],10 to 100
20,CN(C)C(=O)c1cc2ccc(C3=CCCN(C(=O)CN4CCOC4=O)C3)cc2[nH]1 [Example I-42],10 to 100
21,CN(C)C(=O)c1cc2ccc(C3=CCCN(C(=O)c4nonc4C4CC4)C3)cc2[nH]1 [Example I-44],10 to 100
22,CN(C)C(=O)c1cc2ccc(C3=CCCN(C(=O)c4cn(C5CC5)nn4)C3)cc2[nH]1 [Example I-45],10 to 100

row,SMILES,IC50 [µM]
1,CN(C)C(=O)c1cc2ccc(C3=CCCN(C(=O)CC(C)(O)C(F)(F)F)C3)cc2[nH]1 (stereo not shown) [Example I-46],10 to 100
2,CN(C)C(=O)c1cc2ccc(C3=CCCN(C(=O)c4ccc(O)c(F)c4)C3)cc2[nH]1 [Example I-48],10 to 100
3,CC(=O)c1cc(C(=O)N2CCC=C(c3ccc4cc(C(=O)N(C)C)[nH]c4c3)C2)n[nH]1 [Example I-49],10 to 100
4,CO[C@@H](C(=O)N1CCC=C(c2ccc3cc(C(=O)N(C)C)[nH]c3c2)C1)c1ccccc1 [Example I-50],10 to 100
5,CN(C)C(=O)c1cc2ccc(C3=CCCN(C(=O)C(O)Cc4ccccc4)C3)cc2[nH]1 (stereo not shown) [Example I-51],10 to 100
6,CN(C)C(=O)c1cc2ccc(C3=CCCN(C(=O)C(O)Cc4ccccc4)C3)cc2[nH]1 (stereo not shown) [Example I-52],10 to 100
7,CC(C(=O)N1CCC=C(c2ccc3cc(C(=O)N(C)C)[nH]c3c2)C1)n1ccccc1=O (stereo not shown) [Example I-53],1 to 10
8,CC(Oc1ccccn1)C(=O)N1CCC=C(c2ccc3cc(C(=O)N(C)C)[nH]c3c2)C1 (stereo not shown) [Example I-54],10 to 100
9,CN(C)C(=O)c1cc2ccc(C3=CCCN(C(=O)C45CC(C(F)(F)F)(C4)C5)C3)cc2[nH]1 [Example I-55],10 to 100
10,CN(C)C(=O)c1cc2ccc(C3=CCCN(C(=O)[C@@H]4C[C@H]4c4ccc(Br)cc4)C3)cc2[nH]1 [Example I-56],10 to 100
11,CN(C)C(=O)c1cc2ccc(C3=CCCN(C(=O)c4[nH]nc5c4CS(=O)(=O)C5)C3)cc2[nH]1 [Example I-57],10 to 100
12,CN(C)C(=O)c1cc2ccc(C3=CCCN(C(=O)c4ccc5c(n4)OCCO5)C3)cc2[nH]1 [Example I-58],> 100
13,CN(C)C(=O)c1cc2ccc(C3=CCCN(C(=O)[C@H]4Cc5ccccc5CN4)C3)cc2[nH]1 [Example I-59],1 to 10
14,CN(C)C(=O)c1cc2ccc(C3=CCCN(C(=O)C4NCCc5ccccc54)C3)cc2[nH]1 (stereo not shown) [Example I-60],> 100
15,CN(C)C(=O)c1cc2ccc(C3=CCCN(C(=O)c4c(F)cccc4C(=O)O)C3)cc2[nH]1 [Example I-61],> 100
16,CN(C)C(=O)c1cc2ccc(C3=CCCN(C(=O)c4cnn(C)c4C(F)(F)F)C3)cc2[nH]1 [Example I-62],10 to 100
17,CN(C)C(=O)c1cc2ccc(C3=CCCN(C(=O)CCc4cccc(C#N)c4)C3)cc2[nH]1 [Example I-63],> 100
18,CN(C)C(=O)c1cc2ccc(C3=CCCN(C(=O)CCc4ccccc4C#N)C3)cc2[nH]1 [Example I-64],> 100
19,CN(C)C(=O)c1cc2ccc(C3=CCCN(C(=O)[C@@H](N)Cc4cccc(F)c4)C3)cc2[nH]1 [Example I-65],> 100
20,CN(C)C(=O)c1cc2ccc(C3=CCCN(C(=O)CCS(=O)(=O)c4ccccc4)C3)cc2[nH]1 [Example I-66],1 to 10
